Assay results from the NIST ThermoML archive (doi:10.1021/je100707s).
Several values for one entry are separate records, joined by “and”; a condition that tells them apart may be missing. Equal entries are not always repeated. Numbers after ± are expanded uncertainties.

Details: Gas, Bellows volumetry

F/C=C/C(F)(F)F [trans-1,3,3,3-tetrafluoropropene]
Details | mass density
310 K, 657 kPa | 34.36 ± 0.45 kg/m3
310 K, 669 kPa | 35.06 ± 0.38 kg/m3
310 K, 681 kPa | 35.86 ± 0.48 kg/m3
310 K, 695 kPa | 36.78 ± 0.48 kg/m3
320 K, 691 kPa | 34.42 ± 0.47 kg/m3
320 K, 701 kPa | 35.05 ± 0.45 kg/m3
320 K, 716 kPa | 35.92 ± 0.46 kg/m3
320 K, 730 kPa | 36.8 ± 0.46 kg/m3
320 K, 743 kPa | 37.6 ± 0.48 kg/m3
320 K, 759 kPa | 38.61 ± 0.49 kg/m3
320 K, 775 kPa | 39.62 ± 0.51 kg/m3
320 K, 791 kPa | 40.64 ± 0.53 kg/m3
320 K, 808 kPa | 41.76 ± 0.53 kg/m3
320 K, 823 kPa | 42.77 ± 0.55 kg/m3
320 K, 837 kPa | 43.67 ± 0.53 kg/m3
320 K, 851 kPa | 44.36 ± 0.45 kg/m3
320 K, 866 kPa | 45.45 ± 0.49 kg/m3
320 K, 881 kPa | 46.49 ± 0.49 kg/m3
320 K, 899 kPa | 47.75 ± 0.51 kg/m3
320 K, 910 kPa | 48.63 ± 0.53 kg/m3
330 K, 718 kPa | 34.26 ± 0.45 kg/m3
330 K, 731 kPa | 34.99 ± 0.45 kg/m3
330 K, 746 kPa | 35.85 ± 0.46 kg/m3
330 K, 762 kPa | 36.76 ± 0.46 kg/m3
330 K, 778 kPa | 37.66 ± 0.48 kg/m3
330 K, 792 kPa | 38.48 ± 0.48 kg/m3
330 K, 810 kPa | 39.52 ± 0.5 kg/m3
330 K, 828 kPa | 40.65 ± 0.52 kg/m3
330 K, 844 kPa | 41.61 ± 0.52 kg/m3
330 K, 866 kPa | 42.95 ± 0.53 kg/m3
330 K, 893 kPa | 44.43 ± 0.45 kg/m3
330 K, 908 kPa | 45.39 ± 0.47 kg/m3
330 K, 927 kPa | 46.54 ± 0.46 kg/m3
330 K, 943 kPa | 47.55 ± 0.48 kg/m3
330 K, 961 kPa | 48.73 ± 0.48 kg/m3
330 K, 981 kPa | 50.03 ± 0.51 kg/m3
330 K, 1001 kPa | 51.36 ± 0.52 kg/m3
330 K, 1020 kPa | 52.67 ± 0.54 kg/m3
330 K, 1041 kPa | 54.12 ± 0.55 kg/m3
330 K, 1063 kPa | 55.64 ± 0.55 kg/m3
330 K, 1075 kPa | 56.44 ± 0.57 kg/m3
330 K, 1097 kPa | 57.98 ± 0.48 kg/m3
330 K, 1113 kPa | 59.21 ± 0.49 kg/m3
330 K, 1139 kPa | 61.03 ± 0.51 kg/m3
330 K, 1165 kPa | 63.02 ± 0.52 kg/m3
340 K, 747 kPa | 34.24 ± 0.44 kg/m3
340 K, 762 kPa | 35.03 ± 0.44 kg/m3
340 K, 778 kPa | 35.89 ± 0.45 kg/m3
340 K, 794 kPa | 36.75 ± 0.46 kg/m3
340 K, 810 kPa | 37.63 ± 0.47 kg/m3
340 K, 827 kPa | 38.54 ± 0.47 kg/m3
340 K, 845 kPa | 39.55 ± 0.49 kg/m3
340 K, 864 kPa | 40.55 ± 0.51 kg/m3
340 K, 882 kPa | 41.66 ± 0.52 kg/m3
340 K, 903 kPa | 42.85 ± 0.53 kg/m3
340 K, 921 kPa | 43.82 ± 0.53 kg/m3
340 K, 933 kPa | 44.41 ± 0.43 kg/m3
340 K, 953 kPa | 45.51 ± 0.46 kg/m3
340 K, 971 kPa | 46.56 ± 0.46 kg/m3
340 K, 989 kPa | 47.62 ± 0.48 kg/m3
340 K, 1008 kPa | 48.82 ± 0.48 kg/m3
340 K, 1030 kPa | 50.12 ± 0.5 kg/m3
340 K, 1049 kPa | 51.33 ± 0.51 kg/m3
340 K, 1069 kPa | 52.63 ± 0.53 kg/m3
340 K, 1090 kPa | 53.99 ± 0.53 kg/m3
340 K, 1117 kPa | 55.66 ± 0.54 kg/m3
340 K, 1134 kPa | 56.71 ± 0.57 kg/m3
340 K, 1154 kPa | 58.04 ± 0.46 kg/m3
340 K, 1175 kPa | 59.4 ± 0.47 kg/m3
340 K, 1196 kPa | 60.76 ± 0.46 kg/m3
340 K, 1218 kPa | 62.25 ± 0.49 kg/m3
340 K, 1238 kPa | 63.68 ± 0.51 kg/m3
340 K, 1262 kPa | 65.39 ± 0.53 kg/m3
340 K, 1284 kPa | 67.01 ± 0.55 kg/m3
340 K, 1305 kPa | 68.59 ± 0.55 kg/m3
340 K, 1308 kPa | 68.83 ± 0.5 kg/m3
340 K, 1331 kPa | 70.6 ± 0.57 kg/m3 and 70.59 ± 0.5 kg/m3
340 K, 1354 kPa | 72.27 ± 0.52 kg/m3
340 K, 1356 kPa | 72.51 ± 0.59 kg/m3
340 K, 1378 kPa | 74.19 ± 0.51 kg/m3
340 K, 1384 kPa | 74.55 ± 0.6 kg/m3
340 K, 1398 kPa | 75.77 ± 0.55 kg/m3
340 K, 1420 kPa | 77.51 ± 0.56 kg/m3
340 K, 1441 kPa | 79.28 ± 0.58 kg/m3
340 K, 1465 kPa | 81.46 ± 0.6 kg/m3
340 K, 1482 kPa | 83.02 ± 0.6 kg/m3
340 K, 1490 kPa | 83.71 ± 0.61 kg/m3
350 K, 777 kPa | 34.25 ± 0.43 kg/m3
350 K, 794 kPa | 35.1 ± 0.43 kg/m3
350 K, 809 kPa | 35.85 ± 0.45 kg/m3
350 K, 824 kPa | 36.66 ± 0.45 kg/m3
350 K, 841 kPa | 37.55 ± 0.47 kg/m3
350 K, 861 kPa | 38.6 ± 0.47 kg/m3
350 K, 880 kPa | 39.57 ± 0.49 kg/m3
350 K, 899 kPa | 40.59 ± 0.51 kg/m3
350 K, 921 kPa | 41.8 ± 0.51 kg/m3
350 K, 943 kPa | 42.97 ± 0.52 kg/m3
350 K, 974 kPa | 44.44 ± 0.43 kg/m3
350 K, 992 kPa | 45.42 ± 0.46 kg/m3
350 K, 1009 kPa | 46.4 ± 0.46 kg/m3
350 K, 1033 kPa | 47.69 ± 0.48 kg/m3
